{
  "source": "patent US9428519B2",
  "about": "“Acylated derivative of homoharringtonine, preparation method therefor, and application thereof” (HANGZHOU BENSHENG PHARMACEUTICAL CO., LTD., priority 2011, dated 2016)",
  "key": {"[1]": {"system": "Hep-2 (laryngeal carcinoma)", "assay": "MTT growth inhibition of human solid tumor cells, 72 h", "format": "cell-based", "settings": "Homo sapiens, HEp-2", "description": "(§1) Human solid tumor cell lines: Hep-2 (laryngeal carcinoma), A549 (human lung cancer), CaES-17 (esophageal cancer cell), PC-3 (prostate cancer), CNE (nasopharyngeal carcinoma cell), and SK-OV-3 (ovarian cancer cell), all of which are purchased from China Center For Type Culture Collection; RKO (human colon adenocarcinoma cell), MGC 803 (human gastric cancer cell), MG63 (osteosarcoma) and U87 MG (malignant glioma cell), all of which are purchased from Fuxiang Bio-tech Co. Ltd., Shanghai, China; PANC-1 (pancreatic cancer), Huh7 (human liver cancer cell), Becap37 (human breast cancer cell), and Hela (human cervical cancer cell), all of which are donated by Cancer Research Institute of Zhejiang University, China.\n(§2) Obtaining 4000 well-growing human solid tumor cells and inoculating them into wells of a 96-well cell culture plate. The culture medium is DMEM High Glucose cell culture medium containing 10% fetal bovine serum. The plate is placed in a carbon dioxide cell incubator (5% CO2) at 37° C. and incubated for 24 hours. After adding the homoharringtonine derivatives of different concentration and mixing uniformly, the plate is placed in a carbon dioxide cell incubator (5% CO2) at 37° C. and incubated for 72 hours. Then the viable cell concentration is determined by the MTT method and the cell viability (%) after drug treatment is calculated. In this experiment, the cell viability of control group (not treated with any compound) is set as 100%."}, "[2]": {"system": "U87 MG (malignant glioma cell)", "assay": "MTT growth inhibition of human solid tumor cells, 72 h", "format": "cell-based", "settings": "Homo sapiens, U-87 MG", "description": "as §1, §2"}, "[3]": {"system": "RKO (human colon adenocarcinoma cell)", "assay": "MTT growth inhibition of human solid tumor cells, 72 h", "format": "cell-based", "description": "as §1, §2"}, "A549 (human lung cancer)": {"system": "A549 (human lung cancer)", "assay": "MTT growth inhibition of human solid tumor cells, 72 h", "format": "cell-based", "settings": "Homo sapiens, A549", "description": "as §1, §2"}, "[4]": {"system": "CaES-17 (esophageal cancer cell)", "assay": "MTT growth inhibition of human solid tumor cells, 72 h", "format": "cell-based", "settings": "Homo sapiens, CaEs17", "description": "as §1, §2"}, "PC-3 (prostate cancer)": {"system": "PC-3 (prostate cancer)", "assay": "MTT growth inhibition of human solid tumor cells, 72 h", "format": "cell-based", "settings": "Homo sapiens, MTT", "description": "as §1, §2"}, "[5]": {"system": "CNE (nasopharyngeal carcinoma cell)", "assay": "MTT growth inhibition of human solid tumor cells, 72 h", "format": "cell-based", "settings": "Homo sapiens, MTT", "description": "as §1, §2"}, "MG63 (osteosarcoma)": {"system": "MG63 (osteosarcoma)", "assay": "MTT growth inhibition of human solid tumor cells, 72 h", "format": "cell-based", "description": "as §1, §2"}, "[6]": {"system": "Becap37 (human breast cancer cell)", "assay": "MTT growth inhibition of human solid tumor cells, 72 h", "format": "cell-based", "settings": "Homo sapiens", "description": "as §1, §2"}, "[7]": {"system": "PANC-1 (pancreatic cancer)", "assay": "MTT growth inhibition of human solid tumor cells, 72 h", "format": "cell-based", "settings": "Homo sapiens, PANC-1, MTT", "description": "as §1, §2"}, "[8]": {"system": "SK-OV-3 (ovarian cancer cell)", "assay": "MTT growth inhibition of human solid tumor cells, 72 h", "format": "cell-based", "settings": "Homo sapiens, SK-OV-3, MTT", "description": "as §1, §2"}, "[9]": {"system": "Huh7 (human liver cancer cell)", "assay": "MTT growth inhibition of human solid tumor cells, 72 h", "format": "cell-based", "settings": "Homo sapiens, Huh-7", "description": "as §1, §2"}, "[10]": {"system": "MGC 803 (human gastric cancer cell)", "assay": "MTT growth inhibition of human solid tumor cells, 72 h", "format": "cell-based", "settings": "Homo sapiens, MGC-803", "description": "as §1, §2"}, "[11]": {"system": "Hela (human cervical cancer cell)", "assay": "MTT growth inhibition of human solid tumor cells, 72 h", "format": "cell-based", "settings": "Homo sapiens, HeLa, MTT", "description": "as §1, §2"}, "[12]": {"system": "RPMI8226 (multiple myeloma)", "assay": "MTT growth inhibition of multiple myeloma cells, 72 h", "format": "cell-based, human", "settings": "Homo sapiens, RPMI-8226, MTT", "description": "Multiple myeloma and lymphoma cell lines: RPMI8226 (multiple myeloma), purchased from Fuxiang Bio-tech Co. Ltd., Shanghai, China.\n(§3) Obtaining 6000 well-growing leukemia cells and inoculating them into wells of a 96-well cell culture plate. The culture medium is the 1640 cell culture medium containing 10% fetal bovine serum. After adding the homoharringtonine derivatives of different concentrations and mixing uniformly, placing the plate in a carbon dioxide cell incubator (5% CO2) at 37° C. and incubated for 72 hours. Then the viable cell concentration is determined by the MTT method. In this experiment, the cell viability in control group (not treated with any compound) is set as 100%. On such basis, the cell viability (%) after treatment and the 50% inhibiting concentration of the compound for the leukemia cell growth at 72 hours (IC50 value of 72 hours) are calculated."}, "[13]": {"system": "H9 (acute lymphoblastic leukemia, ALL)", "assay": "MTT growth inhibition of leukemia cells, 72 h", "format": "cell-based, human", "settings": "Homo sapiens, MTT", "description": "(§4) Leukemia cell lines: leukemia cell lines: K562/adr (drug-resistant, chronic myeloid leukemia, CML), NB4 (acute promyelocytic leukemia, AML), Kasumi-1 (acute myeloid leukemia M2 type, AML-M2), Jurkat (acute lymphoblastic leukemia, ALL), all of which are donated by Cancer Research Institute of Zhejiang University, China; and H9 (acute lymphoblastic leukemia, ALL), which is purchased from China Center for Type Culture Collection (CCTCC).\n(§5) Reagents: The standard sample of homoharringtonine (HHT) is purchased from Taihua Natural Plant Pharmaceutical Co., Ltd., Shaanxi, China, the homoharringtonine derivatives of the present invention.\nas §3"}, "[14]": {"system": "NB4 (acute promyelocytic leukemia, AML)", "assay": "MTT growth inhibition of leukemia cells, 72 h", "format": "cell-based, human", "settings": "Homo sapiens, MTT", "description": "as §4, §5, §3"}, "[15]": {"system": "Kasumi-1 (acute myeloid leukemia M2 type, AML-M2)", "assay": "MTT growth inhibition of leukemia cells, 72 h", "format": "cell-based, human", "settings": "Homo sapiens, Kasumi 1, MTT", "description": "as §4, §5, §3"}, "[16]": {"system": "Jurkat (acute lymphoblastic leukemia, ALL)", "assay": "MTT growth inhibition of leukemia cells, 72 h", "format": "cell-based, human", "settings": "Homo sapiens, Jurkat", "description": "as §4, §5, §3"}, "[17]": {"system": "K562/adr (drug-resistant, chronic myeloid leukemia, CML)", "assay": "MTT growth inhibition of leukemia cells, 72 h", "format": "cell-based, human", "settings": "Homo sapiens, K562/Adr, MTT", "description": "as §4, §5, §3"}},
  "data": [
    {"smiles": "COC(=O)C[C@](O)(CCCC(C)(C)OC(=O)c1ccco1)C(=O)O[C@@H]1C(OC)=C[C@]23CCCN2CCc2cc4c(cc2[C@H]13)OCO4", "note": "[BS-HH-059]", "values": [
      {"measurement": "IC50", "setting": "[1]", "result": 0.015, "unit": "µg/mL"},
      {"measurement": "IC90", "setting": "[1]", "result": "> 16", "unit": "µg/mL"},
      {"measurement": "IC50", "setting": "[2]", "result": 0.023, "unit": "µg/mL"},
      {"measurement": "IC90", "setting": "[2]", "result": 0.18, "unit": "µg/mL"},
      {"measurement": "IC50", "setting": "[3]; Homo sapiens, MTT", "result": 0.001, "unit": "µg/mL"},
      {"measurement": "IC90", "setting": "[3]; Homo sapiens, MTT", "result": 0.015, "unit": "µg/mL"},
      {"measurement": "anti-RKO effect relative to homoharringtonine", "setting": "[3]; vs HHT", "result": "substantially superior"},
      {"measurement": "IC50", "setting": "A549 (human lung cancer)", "result": 0.03, "unit": "µg/mL"},
      {"measurement": "IC90", "setting": "A549 (human lung cancer)", "result": "> 16", "unit": "µg/mL"},
      {"measurement": "IC50", "setting": "[4]", "result": 0.029, "unit": "µg/mL"},
      {"measurement": "IC90", "setting": "[4]", "result": 16, "unit": "µg/mL"},
      {"measurement": "IC50", "setting": "PC-3 (prostate cancer)", "result": 0.08, "unit": "µg/mL"},
      {"measurement": "IC90", "setting": "PC-3 (prostate cancer)", "result": "> 16", "unit": "µg/mL"},
      {"measurement": "IC50", "setting": "[5]", "result": 0.031, "unit": "µg/mL"},
      {"measurement": "IC90", "setting": "[5]", "result": "> 16", "unit": "µg/mL"},
      {"measurement": "IC50", "setting": "MG63 (osteosarcoma); Homo sapiens, MG-63, MTT", "result": 0.02, "unit": "µg/mL"},
      {"measurement": "IC90", "setting": "MG63 (osteosarcoma); Homo sapiens, MG-63, MTT", "result": 3.08, "unit": "µg/mL"},
      {"measurement": "anti-MG63 effect relative to homoharringtonine", "setting": "MG63 (osteosarcoma); vs HHT", "result": "substantially superior"},
      {"measurement": "IC50", "setting": "[6]", "result": 0.007, "unit": "µg/mL"},
      {"measurement": "IC90", "setting": "[6]", "result": 7.4, "unit": "µg/mL"},
      {"measurement": "IC50", "setting": "[7]", "result": 0.029, "unit": "µg/mL"},
      {"measurement": "IC90", "setting": "[7]", "result": "> 16", "unit": "µg/mL"},
      {"measurement": "IC50", "setting": "[8]", "result": 0.08, "unit": "µg/mL"},
      {"measurement": "IC90", "setting": "[8]", "result": "> 16", "unit": "µg/mL"},
      {"measurement": "IC50", "setting": "[9]", "result": 0.012, "unit": "µg/mL"},
      {"measurement": "IC90", "setting": "[9]", "result": 0.081, "unit": "µg/mL"},
      {"measurement": "IC50", "setting": "[10]", "result": 0.021, "unit": "µg/mL"},
      {"measurement": "IC90", "setting": "[10]", "result": 0.11, "unit": "µg/mL"},
      {"measurement": "IC50", "setting": "[11]", "result": 0.014, "unit": "µg/mL"},
      {"measurement": "IC90", "setting": "[11]", "result": 16, "unit": "µg/mL"},
      {"measurement": "IC50", "setting": "[12]", "result": 0.006, "unit": "µg/mL"},
      {"measurement": "IC90", "setting": "[12]", "result": 0.039, "unit": "µg/mL"},
      {"measurement": "IC50", "setting": "[13]", "result": 0.007, "unit": "µg/mL"},
      {"measurement": "IC90", "setting": "[13]", "result": 0.02, "unit": "µg/mL"},
      {"measurement": "IC50", "setting": "[14]", "result": 0.006, "unit": "µg/mL"},
      {"measurement": "IC90", "setting": "[14]", "result": 0.012, "unit": "µg/mL"},
      {"measurement": "IC50", "setting": "[15]", "result": 0.005, "unit": "µg/mL"},
      {"measurement": "IC90", "setting": "[15]", "result": 0.012, "unit": "µg/mL"},
      {"measurement": "IC50", "setting": "[16]", "result": 0.003, "unit": "µg/mL"},
      {"measurement": "IC90", "setting": "[16]", "result": "≥ 16", "unit": "µg/mL"},
      {"measurement": "IC50", "setting": "[17]", "result": 0.03, "unit": "µg/mL"},
      {"measurement": "IC90", "setting": "[17]", "result": 0.35, "unit": "µg/mL"}
    ]}
  ]
}
